Test results published in paper PMC7662385, “New Fluorene Derivatives from Dendrobium gibsonii and Their α-Glucosidase Inhibitory Activity” (Molecules, 2020).
Where two headings read alike, the source gives them in different places.

Columns and labels:
α-glucosidase [1] = assay: α-glucosidase inhibition assay (p-nitrophenol release from p-nitrophenol-α-D-glucopyranoside); format: biochemical, Yeast; settings: two-fold serial dilution; acarbose positive control; read-out: α-glucosidase inhibitory activity IC50
Method: In this study, each compound was initially tested at 100 μg/mL.
(§1) The α-glucosidase inhibition assay was performed according to previous protocols. The assay was based on the release of p-nitrophenol from p-nitrophenol-α-D-glucopyranoside (substrate). The test samples were prepared by dissolving in 50% DMSO. […] The sample solution (10 μL) and 0.1 U/mL α-glucosidase (40 μL) in phosphate buffer (pH 6.8) were added to a 96-well plate. The mixture was preincubated at 37 °C for 10 min before adding 2 mM p-nitrophenol-α-D-glucopyranoside (50 μL). Then, the reaction was incubated again at 37 °C for 20 min. Finally, 1 M Na2CO3 solution (100 μL) was added to stop the reaction. The absorbance of the mixture was determined using a microplate reader at 405 nm.

α-glucosidase [2] = assay: α-glucosidase enzyme kinetic study (Lineweaver–Burk and secondary plots); format: biochemical, Yeast; settings: for mode of α-glucosidase inhibition: Lineweaver–Burk plots
Method: Further investigation was conducted on compound 2 to study its kinetic properties with regard to the enzyme α-glucosidase using varying concentrations of the substrate.
as §1
An enzyme kinetic study was conducted based on the α-glucosidase assay as mentioned above. […] The inhibition mode was determined by double-reciprocal Lineweaver–Burk plot (1/V vs. 1/[S]). In order to estimate the Ki value, slopes of double-reciprocal lines were used to construct a secondary plot, and the Ki was calculated from the line equation of the plot.

Row | Structure (SMILES) | IC50 (α-glucosidase [1]) | mode of α-glucosidase inhibition (α-glucosidase [2]) | Ki (α-glucosidase [2]; from secondary plot of slopes of double-reciprocal lines) | Vmax (α-glucosidase [2]; inhibitor dose 11 μM, PNPG 0.25 to 2 mM) | Km (α-glucosidase [2]; inhibitor dose 11 μM, PNPG 0.25 to 2 mM, read-out: Km) | Vmax (α-glucosidase [2]; inhibitor dose 22 μM, PNPG 0.25 to 2 mM) | Km (α-glucosidase [2]; inhibitor dose 22 μM, PNPG 0.25 to 2 mM, read-out: Km) | Km (α-glucosidase [2]; with changing inhibitor concentration, dose not given, read-out: Km as stated in text) | Vmax (α-glucosidase [2]; inhibitor dose 465 μM, PNPG 0.25 to 2 mM) | Km (α-glucosidase [2]; inhibitor dose 465 μM, PNPG 0.25 to 2 mM, read-out: Km) | Vmax (α-glucosidase [2]; inhibitor dose 930 μM, PNPG 0.25 to 2 mM) | Vmax as stated in text (α-glucosidase [2]; with changing inhibitor concentration, dose not given)
1 | COc1cc2c3c(c1O)CCc1cc(OC)c(OC)c(c1-3)OC21c2cccc(O)c2-c2c1cc(OC)c(O)c2OC (centres unmarked) [Compound 2, dendrogibsol] | 19.8 ± 0.9 µM | noncompetitive | 20.4 µM | 0.086 ∆OD/min | 1230 µM | 0.052 ∆OD/min | 1190 µM | 1550 µM |  |  |  | 
2 | COc1cc(O)c2c(c1)CCc1cc(O)ccc1-2 [Compound 7, lusianthridin] | 185 ± 6.9 µM |  |  |  |  |  |  |  |  |  |  | 
3 | C[C@H]1O[C@H](O[C@H]2[C@H](O)[C@@H](O)[C@@H](O[C@H]3[C@H](O)[C@@H](O)C(O)O[C@@H]3CO)O[C@@H]2CO)[C@H](O)[C@@H](O)[C@@H]1N[C@H]1C=C(CO)[C@@H](O)[C@H](O)[C@H]1O (some centres unmarked) [acarbose, reference compound] |  | competitive |  |  |  |  |  |  | 0.10 ∆OD/min | 6740 µM | 0.11 ∆OD/min | 0.11 ∆OD/min
